Data: patent US20190350200A1, “SYNERGISTIC ANTIMICROBIAL COMPOSITIONS” (JUBILANT LIFE SCIENCES LIMITED, priority 2016, published 2019)

System: Malassezia furfur
Assay: Zone of inhibition, disc diffusion method
Assay type: cell-based
Conditions: antimicrobial active alone, 37° C., 48 hrs; for zone of inhibition at […] strength / zone of inhibition at 0.5 % strength / zone of inhibition at 1 % strength / zone of inhibition at 2 % strength: Malassezia furfur; for zone of inhibition at […] strength: 0.25 % w/w
Protocol: The antimicrobial efficacy was determined by measuring zone of inhibition using disc diffusion method against E. Coli, Malassezia furfur, Pseudomonas, Aspergillus niger, Staphylococcus and Candida. […] The culture plates were incubated at 37° C. for 48 hrs and anti-microbial activity was evaluated by observing an area of no growth around the disc. An area of no growth around the swatch is known as a zone of inhibition.

SMILES | Zone of inhibition (0.5 % w/w) | Zone of inhibition (1 % w/w) | Zone of inhibition (2 % w/w) | Zone of inhibition ([…] w/w) | zone of inhibition at […] strength | zone of inhibition at 0.5 % strength (0.5 % w/w) | zone of inhibition at 1 % strength (1 % w/w) | zone of inhibition at 2 % strength (2 % w/w)
Cc1cc(CC(C)CC(C)(C)C)n(O)c(=O)c1.NCCO (stereo not drawn) [Octopirox] | 14 mm | 18 mm | 20 mm | 10 mm | – | – | – | –
CC(C)(C)C(=O)C(Oc1ccc(Cl)cc1)n1ccnc1 (stereo not drawn) [Climbazole] | – | – | – | – | 20 mm | 40 mm | 40 mm | 42 mm
O=C(O)c1ccccc1O [Salicylic Acid] | – | – | – | – | – | – | 4 mm | 6 mm
CC(=O)N1CCN(c2ccc(OCC3COC(Cn4ccnc4)(c4ccc(Cl)cc4Cl)O3)cc2)CC1 (stereo not drawn) [Ketoconazole] | – | – | – | – | 40 mm | 40 mm | 40 mm | 40 mm
Cc1cc(C2CCCCC2)n(O)c(=O)c1 [Ciclopirox Olamine] | – | – | – | – | 18 mm | 18 mm | 20 mm | 22 mm
